Test results: patent US11448643B2, “Methods to specifically profile protease activity at lymph nodes” (Massachusetts Institute of Technology, priority 2016, dated 2022)
Square brackets hold non-standard residues; d marks the D form. Ends that are not written are not given here. Pip = O=C(O)[C@@H]1CCCCN1

Experiments:
[1] = system: homogenized lymph nodes from vaccinated mice; assay: Ex vivo peptide screen: cleavage of fluorogenic protease substrates by homogenized lymph nodes from vaccinated vs control mice; assay type: biochemical; conditions: 58 fluorogenic substrates; 384 well plates; fluorescence over several hours; FIG. 7
Method: Substrate cleavage of 58 peptides was measured. Signal reported is the fold difference in cleavage between vaccinated mice and PBS-injected mice.
Mice were vaccinated in the same manner as described above. Lymph nodes from vaccinated or non-vaccinated mice were harvested. The harvested lymph nodes were homogenized and added to the 58 fluorogenic protease substrates (SEQ ID NOs: 2-59) in 384 well plates. Fluorescent signal was monitored over the period of several hours for each substrate in the well plates. Fluorescence of reporter molecules in lymph nodes of vaccinated mice was compared to non-vaccinated mice (injected with PBS) and reported as the fold difference in cleavage of each substrate between vaccinated and control mice. […] The substrate used urinary monitoring experiment described above is referred to as Q7 (PLGVRGK; SEQ ID NO: 76).

[2] = system: metalloproteases in the LN; conditions: mice vaccinated with amph-EGP plus lipo-CpG and boosted; urine collected 3 hours after injection; ELISA; FIG. 6
Method: Mice were injected subcutaneously and urine for analysis was collected 3 h post-administration.
Mice were later boosted to engage both innate and adaptive immunity. Subsequently, mice were administered a LN-targeting pro-diagnostic reagent comprising a LN-specific enzyme susceptible domain (e.g., protease substrate). Cleavage of the pro-diagnostic reagent by metalloproteases in the LN results in production of signature molecules (ligand encoded tags) that are released into the urine of the subject (e.g., mouse). Urine was collected from the mice 3 hours after injection. Reporter signal was quantified by ELISA.

| Substance | rank of substrate cleavage (fold difference vaccinated vs control mice) [1] | urinary reporter signal in vaccinated mice compared to PBS-injected mice [2] |
| --- | --- | --- |
| f(Pip)KSGGG ([dF][Pip]KSGGG; also: fluorogenic labels) [Q10, fluorogenic protease substrate, f is D-Phe, Pip is pipecolic acid] | two highest cleaved substrates |  |
| GGVPRG (also: fluorogenic labels) [PQ12] | two highest cleaved substrates |  |
| Albumin-GPLGVRGKGK(Biotin)eGvndneeGffsarK(FAM) [Albumin-B7] |  | significantly increased |
